Tests used:
Type in all cases: in vivo
[1] = system: Datura (tropical); experiment: Nursery plants sprayed, boxed and shipped, quality rating (Example 10); conditions: 50 mg/L of 1-MCP; after 5 days shipping; 0 (poor) to 2 (good)
Procedure: (§1) A range of nursery plants that often show quality problems during shipping were chosen including Datura (tropical), Mini-rose, Delphinium (sun perennial), Verbena (sun perennial), Asclepias (sun perennial), Delosperma (groundcover), Myosotis (shade perennial) and Primula (shade perennial).
(§2) Spray liquid had 50 mg/L of 1-MCP. Sprayed and unsprayed control plants, all of which were blooming, were packed in boxes according to standard procedures and shipped under commercial conditions. After 5 days plants were unpacked and given a quality rating, from 0 (poor) to 2 (good).

[2] = system: Verbena; experiment: as above; conditions: 50 mg/L of 1-MCP; after 5 days shipping; 0 (poor) to 2 (good)
Procedure: as §1, §2

[3] = system: Asclepias; experiment: as above; conditions: 50 mg/L of 1-MCP; after 5 days shipping; 0 (poor) to 2 (good)
Procedure: as §1, §2

[4] = system: Delphinium; experiment: as above; conditions: 50 mg/L of 1-MCP; after 5 days shipping; 0 (poor) to 2 (good)
Procedure: as §1, §2

[5] = system: Mini-rose; experiment: as above; conditions: 50 mg/L of 1-MCP; after 5 days shipping; 0 (poor) to 2 (good)
Procedure: as §1, §2

[6] = system: Delosperma; experiment: as above; conditions: 50 mg/L of 1-MCP; after 5 days shipping; 0 (poor) to 2 (good)
Procedure: as §1, §2

[7] = system: Primula; experiment: as above; conditions: 50 mg/L of 1-MCP; after 5 days shipping; 0 (poor) to 2 (good)
Procedure: as §1, §2

[8] = system: Myosotis; experiment: as above; conditions: 50 mg/L of 1-MCP; after 5 days shipping; 0 (poor) to 2 (good)
Procedure: as §1, §2

[9] = system: ‘Candy Stripe’ phlox; experiment: Spray with 1-MCP solutions with or without Silwet L-77, ethylene challenge (Example 2); conditions: for Bud or Flower Abscission (%): Day 5
Procedure: (§3) Spray applications were made using (unless otherwise noted) AFxRD-038 powder containing 3.8% active ingredient, i.e. 1-MCP, and also containing dextrose, alpha-cyclodextrin, and amino acid salt. Rates listed are for active ingredient e.g. 5 mg active ingredient per liter. Sprayed liquid contained (unless otherwise noted) AFxRD-038 powder added to water. AFxRD-038 powder was obtained from AgroFresh Inc. The water used (unless otherwise noted) was tap water. Applications were done in 500 ml spray bottles at rates typical for growth regulators applications in the ornamental industry i.e., 200 ml per square meter. Spraying was done within 5-15 minutes of mixing the formulation. Plants were allowed to dry for 1-4 hours before being challenged with ethylene (2 ppm for about 16 hours at ambient temperatures).
(§4) Surfactant Silwet™ L-77 (called “surf” below) was sometimes included to evaluate the effect of surfactant on efficacy. Silwet™ L-77 was used in the form of a pure liquid. The amounts shown below as “ml/L” refer to milliliters of pure Silwet™ L-77 per liter of liquid CP composition.
(§5) Kalanchoe (unknown cultivar), ‘Candy Stripe’ phlox and ‘Sonnet’ snapdragon (all in pots of diameter 10 cm (4 inch)) were sprayed with 1-MCP solutions, with or without Silwet™ L-77 surfactant (specific gravity 1.007), and challenged with ethylene.
(§6) For Kanlanchoe, we observed the percent of plants on which one or more flowers died by wilting, whether or not it stayed on the plant. For Phlox and Snapdragon, we observed the percent of plants on which one or more flowers or one or more buds underwent abscission.

[10] = system: Kalanchoe; experiment: as above
Procedure: as §3, §4, §5, §6

[11] = system: racks of flowering plants; experiment: Racks of flowering plants, overall comparison sprayed vs control (Example 8); conditions: 25 mg/L; every variety
Procedure: as §3
Racks of flowers were sprayed with spray liquid containing 25 mg/L at rate of 200 ml/square meter. Racks were then placed into a full enclosed truck (length 7.3 meter) for 14 hours. Plants were then challenged with ethylene and evaluated 3 and 7 days later, using a rating scale from 0 (poor) to 2 (good). […] Results were as follows:
In no case was the sprayed plant worse to a statistically significant degree than the corresponding control plant. In most cases the sprayed plant was better than the corresponding control plant.

[12] = system: Petunia “Royal Velvet”; experiment: Racks of flowering plants sprayed, truck 14 hours, ethylene challenge (Example 8); conditions: 25 mg/L, 200 ml/square meter, scale 0 (poor) to 2 (good)
Procedure: as §3
(§7) Racks of flowers were sprayed with spray liquid containing 25 mg/L at rate of 200 ml/square meter. Racks were then placed into a full enclosed truck (length 7.3 meter) for 14 hours. Plants were then challenged with ethylene and evaluated 3 and 7 days later, using a rating scale from 0 (poor) to 2 (good). […]

[13] = system: Dianthus (mixed); experiment: as above; conditions: 25 mg/L, 200 ml/square meter, scale 0 (poor) to 2 (good)
Procedure: as §3, §7

[14] = system: Impatiens (double pink); experiment: as above; conditions: 25 mg/L, 200 ml/square meter, scale 0 (poor) to 2 (good)
Procedure: as §3, §7

[15] = system: Snapdragon (yellow); experiment: as above; conditions: 25 mg/L, 200 ml/square meter, scale 0 (poor) to 2 (good)
Procedure: as §3, §7

[16] = system: Dianthus “Ideal White”; experiment: as above; conditions: 25 mg/L, 200 ml/square meter, scale 0 (poor) to 2 (good)
Procedure: as §3, §7

[17] = system: Callibrachoa “Cherry Blossom”; experiment: as above; conditions: 25 mg/L, 200 ml/square meter, scale 0 (poor) to 2 (good)
Procedure: as §3, §7

[18] = system: Verbena “babylon Red”; experiment: as above; conditions: 25 mg/L, 200 ml/square meter, scale 0 (poor) to 2 (good)
Procedure: as §3, §7

[19] = system: Impatiens (light pink); experiment: as above; conditions: 25 mg/L, 200 ml/square meter, scale 0 (poor) to 2 (good)
Procedure: as §3, §7

[20] = system: Impatiens (dark pink); experiment: as above; conditions: 25 mg/L, 200 ml/square meter, scale 0 (poor) to 2 (good)
Procedure: as §3, §7

CC1=CC1 [1-MCP, 1-methylcyclopropene]
Quality Rating, Sprayed [1]: 2.0 | Quality Rating, Sprayed [2]: 0.5 | Quality Rating, Sprayed [3]: 1.5 | Quality Rating, Sprayed [4]: 1.0 | Quality Rating, Sprayed [5]: 1.8 | Quality Rating, Sprayed [6]: 1.3 | Quality Rating, Sprayed [7]: 1.0 | Quality Rating, Sprayed [8]: 0.5 | protection against ethylene ([9]; 1-MCP 5 mg/L): sufficient in giving protection against ethylene | Bud or Flower Abscission (%) ([9]; 1-MCP 5 mg/L, surf 0 ml/L): 21.4% | Bud or Flower Abscission (%) ([9]; 1-MCP 5 mg/L, surf 0.25 ml/L): 26.0% | Bud or Flower Abscission (%) ([9]; 1-MCP 10 mg/L, surf 0 ml/L): 17.3% | Bud or Flower Abscission (%) ([9]; 1-MCP 10 mg/L, surf 0.25 ml/L): 22.8% | Bud or Flower Abscission (%) ([9]; 1-MCP 25 mg/L, surf 0 ml/L): 15.8% | Bud or Flower Abscission (%) ([9]; 1-MCP 25 mg/L, surf 0.25 ml/L): 21.2% | Bud or Flower Abscission (%) ([9]; 1-MCP 50 mg/L, surf 0 ml/L): 44.1% | Bud or Flower Abscission (%) ([9]; 1-MCP 50 mg/L, surf 0.25 ml/L): 40.0% | phytotoxicity to the open florets ([9]; the highest rates of 1-MCP): caused phytotoxicity to the open florets | protection against ethylene ([10]; 1-MCP 5 mg/L): sufficient in giving protection against ethylene | Flower Wilting (%) ([10]; 1-MCP 5 mg/L, surf 0 ml/L, Day 5): 7.9% | Flower Wilting (%) ([10]; 1-MCP 5 mg/L, surf 0 ml/L, Day 15): 11.9% | Flower Wilting (%) ([10]; 1-MCP 5 mg/L, surf 0.25 ml/L, Day 5): 7.3% | Flower Wilting (%) ([10]; 1-MCP 5 mg/L, surf 0.25 ml/L, Day 15): 8.7% | Flower Wilting (%) ([10]; 1-MCP 10 mg/L, surf 0 ml/L, Day 5): 5.6% | Flower Wilting (%) ([10]; 1-MCP 10 mg/L, surf 0 ml/L, Day 15): 6.7% | Flower Wilting (%) ([10]; 1-MCP 10 mg/L, surf 0.25 ml/L, Day 5): 5.5% | Flower Wilting (%) ([10]; 1-MCP 10 mg/L, surf 0.25 ml/L, Day 15): 6.8% | Flower Wilting (%) ([10]; 1-MCP 25 mg/L, surf 0 ml/L, Day 5): 4.6% | Flower Wilting (%) ([10]; 1-MCP 25 mg/L, surf 0 ml/L, Day 15): 7.2% | Flower Wilting (%) ([10]; 1-MCP 25 mg/L, surf 0.25 ml/L, Day 5): 6.2% | Flower Wilting (%) ([10]; 1-MCP 25 mg/L, surf 0.25 ml/L, Day 15): 7.4% | phytotoxicity ([10]; 1-MCP 50 mg/L): did not result in any phytotoxicity | Flower Wilting (%) ([10]; 1-MCP 50 mg/L, surf 0 ml/L, Day 5): 6.7% | Flower Wilting (%) ([10]; 1-MCP 50 mg/L, surf 0 ml/L, Day 15): 7.5% | Flower Wilting (%) ([10]; 1-MCP 50 mg/L, surf 0.25 ml/L, Day 5): 5.7% | Flower Wilting (%) ([10]; 1-MCP 50 mg/L, surf 0.25 ml/L, Day 15): 6.7% | sprayed plant compared with control plant [11]: better than the control plant at day 3 or at day 7 or at both | rating, Sprayed ([12]; Day 3): 1.00 a | rating, Sprayed ([12]; Day 7): 0.38 a | rating, Sprayed ([13]; Day 3): 0.58 a | rating, Sprayed ([13]; Day 7): 0.25 a | rating, Sprayed ([14]; Day 3): 1.00 a | rating, Sprayed ([14]; Day 7): 0.58 a | rating, Sprayed ([15]; Day 3): 0.83 a | rating, Sprayed ([15]; Day 7): 0.58 a | rating, Sprayed ([16]; Day 3): 0.92 a | rating, Sprayed ([16]; Day 7): 1.00 a | rating, Sprayed ([17]; Day 3): 1.00 a | rating, Sprayed ([17]; Day 7): 1.00 a | rating, Sprayed ([18]; Day 3): 0.58 a | rating, Sprayed ([18]; Day 7): 0.19 a | rating, Sprayed ([19]; Day 3): 1.00 a | rating, Sprayed ([19]; Day 7): 1.00 a | rating, Sprayed ([20]; Day 3): 1.00 a | rating, Sprayed ([20]; Day 7): 0.83 a

From US20110034335A1, “Treatment of Ornamental Plants” (priority 2009, published 2011)
